Consider 27 compounds from patent US20130072470A1 (ABBVIE INC., priority 2011, published 2013).

T1 sequence (P52333 811-1103): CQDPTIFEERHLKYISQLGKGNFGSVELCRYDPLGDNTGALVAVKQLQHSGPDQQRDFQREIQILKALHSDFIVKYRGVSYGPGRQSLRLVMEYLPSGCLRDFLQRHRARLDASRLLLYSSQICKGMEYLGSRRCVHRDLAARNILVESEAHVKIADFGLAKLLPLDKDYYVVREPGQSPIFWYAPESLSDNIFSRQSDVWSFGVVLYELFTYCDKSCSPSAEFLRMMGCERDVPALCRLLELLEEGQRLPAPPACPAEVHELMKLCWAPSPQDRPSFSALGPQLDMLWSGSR

The test has as its target T1, Jak3 enzyme (aa 811-1103) (Homo sapiens, UniProt P52333).
T1 construct: Jak3 enzyme (aa 811-1103); expressed in SF9 cells as a GST fusion; GST; made in house; host or cells: SF9 insect cells
As to the kind of experiment: In vitro Jak3 kinase activity measured by time-resolved fluorescence resonance energy transfer (trFRET). The note with it: ATP 0.001 mM, Table B. It is filed as biochemical. As for the experimental part: In Vitro Jak3 Kinase Activity Measured by Time-Resolved Fluorescence Resonance Energy Transfer (trFRET)
Varying concentrations of inhibitor were added to an assay well containing: Jak3 enzyme (aa 811-1103; expressed in SF9 cells as a GST fusion and purified by glutathione affinity chromatography; 3 nM), peptide substrate (biotin-TYR2, Sequence: Biotin-(Ahx)-AEEEYFFLFA-amide; 2 μM), MOPSO pH 6.5 (50 mM), MgCl2 (10 mM), MnCl2 (2 mM), DTT (2.5 mM), BSA (0.01% w/v), Na3VO4 (0.1 mM) and ATP (0.001 mM). After about 60 min incubation at rt, the reaction was quenched by addition of EDTA (final concentration: 100 mM) and developed by addition of revelation reagents (final approximate concentrations: 30 mM HEPES pH 7.0, 0.06% BSA, 0.006% Tween-20, 0.24 M KF, 80 ng/mL PT66K (europium labeled anti-phosphotyrosine antibody cat #61T66KLB Cisbio, Bedford, Mass.) and 0.8 μg/mL SAXL (Phycolink streptavidin-allophycocyanin acceptor, cat #PJ52S, Prozyme, San Leandro, Calif.). The developed reaction was incubated in the dark either at about 4° C., for about 14 h or for about 60 min at rt, then read via a time-resolved fluorescence detector (Rubystar, BMG) using a 337 nm laser for excitation and emission wavelength of 665 nm. Within the linear range of the assay, the observed signal at 665 nm is directly related to phosphorylated product and used to calculate the IC50 values.
With `CC[C@@H]1C[C@H](NC(=O)Cc2coc3ccccc23)C[C@@H]1c1nnc2cnc3[nH]ccc3n12` [compound 41, 2-(benzofuran-3-yl)-N-((1S,3R,4S)-3-ethyl-4-(6H-pyrrolo[2,3-e][1,2,4]triazolo[4,3-a]pyrazin-1-yl)cyclopentyl)acetamide], the half-maximal inhibitory concentration (IC50) (usually the point on the concentration scale where inhibition reaches its midpoint) lay in the range of 1 to 10 µM. `CC[C@@H]1C[C@H](NC(=O)c2ncoc2C)C[C@@H]1c1nnc2cnc3[nH]ccc3n12` [compound 42, N-((1S,3R,4S)-3-ethyl-4-(6H-pyrrolo[2,3-e][1,2,4]triazolo[4,3-a]pyrazin-1-yl)cyclopentyl)-5-methyloxazole-4-carboxamide] yielded a 50% inhibitory concentration (IC50) of 1 to 10 µM. Compound `CC[C@@H]1C[C@H](NC(=O)c2oc3ccccc3c2C)C[C@@H]1c1nnc2cnc3[nH]ccc3n12` [compound 43, N-((1S,3R,4S)-3-ethyl-4-(6H-pyrrolo[2,3-e][1,2,4]triazolo[4,3-a]pyrazin-1-yl)cyclopentyl)-3-methylbenzofuran-2-carboxamide] displayed an IC50 of 1 to 10 µM. `CC[C@@H]1C[C@H](NC(=O)CCC2(C)CC2)C[C@@H]1c1nnc2cnc3[nH]ccc3n12` [compound 44, N-((1S,3R,4S)-3-ethyl-4-(6H-pyrrolo[2,3-e][1,2,4]triazolo[4,3-a]pyrazin-1-yl)cyclopentyl)-3-(1-methylcyclopropyl)propanamide] displayed an IC50 of 1 to 10 µM. As for `CC[C@@H]1C[C@H](NC(=O)CCC2CC2)C[C@@H]1c1nnc2cnc3[nH]ccc3n12` [compound 45, 3-cyclopropyl-N-((1S,3R,4S)-3-ethyl-4-(6H-pyrrolo[2,3-e][1,2,4]triazolo[4,3-a]pyrazin-1-yl)cyclopentyl)propanamide], the figure is 1 to 10 µM; as for `CC[C@@H]1C[C@H](NC(=O)c2ccc(C)o2)C[C@@H]1c1nnc2cnc3[nH]ccc3n12` [compound 46, N-((1S,3R,4S)-3-ethyl-4-(6H-pyrrolo[2,3-e][1,2,4]triazolo[4,3-a]pyrazin-1-yl)cyclopentyl)-5-methylfuran-2-carboxamide], over 10 µM. `CC[C@@H]1C[C@H](NC(=O)c2ncoc2C2CC2)C[C@@H]1c1nnc2cnc3[nH]ccc3n12` [compound 47, 5-cyclopropyl-N-((1S,3R,4S)-3-ethyl-4-(6H-pyrrolo[2,3-e][1,2,4]triazolo[4,3-a]pyrazin-1-yl)cyclopentyl)oxazole-4-carboxamide]: the 50% inhibitory concentration (IC50) is over 10 µM. The compound `CC[C@@H]1C[C@H](NC(=O)CNC(=O)c2ccco2)C[C@@H]1c1nnc2cnc3[nH]ccc3n12` [compound 48] gave an IC50 of 1 to 10 µM. As for `CC[C@@H]1C[C@H](NC(=O)c2cc(C)on2)C[C@@H]1c1nnc2cnc3[nH]ccc3n12` [compound 49, N-((1S,3R,4S)-3-ethyl-4-(6H-pyrrolo[2,3-e][1,2,4]triazolo[4,3-a]pyrazin-1-yl)cyclopentyl)-5-methylisoxazole-3-carboxamide], the figure is 1 to 10 µM; as for `CC[C@@H]1C[C@H](NC(=O)c2ccno2)C[C@@H]1c1nnc2cnc3[nH]ccc3n12` [compound 50, N-((1S,3R,4S)-3-ethyl-4-(6H-pyrrolo[2,3-e][1,2,4]triazolo[4,3-a]pyrazin-1-yl)cyclopentyl)isoxazole-5-carboxamide], 1 to 10 µM. As for `CC[C@@H]1C[C@H](NC(=O)c2ocnc2C)C[C@@H]1c1nnc2cnc3[nH]ccc3n12` [compound 51, N-((1S,3R,4S)-3-ethyl-4-(6H-pyrrolo[2,3-e][1,2,4]triazolo[4,3-a]pyrazin-1-yl)cyclopentyl)-4-methyloxazole-5-carboxamide], the figure is 1 to 10 µM; as for `CC[C@@H]1C[C@H](NC(=O)c2ccoc2C)C[C@@H]1c1nnc2cnc3[nH]ccc3n12` [compound 52, N-((1S,3R,4S)-3-ethyl-4-(6H-pyrrolo[2,3-e][1,2,4]triazolo[4,3-a]pyrazin-1-yl)cyclopentyl)-2-methylfuran-3-carboxamide], 1 to 10 µM; as for `CC[C@@H]1C[C@H](NC(=O)CCc2ccco2)C[C@@H]1c1nnc2cnc3[nH]ccc3n12` [compound 53, N-((1S,3R,4S)-3-ethyl-4-(6H-pyrrolo[2,3-e][1,2,4]triazolo[4,3-a]pyrazin-1-yl)cyclopentyl)-3-(furan-2-yl)propanamide], under 1 µM. Take `CC[C@@H]1C[C@H](NC(=O)C2(C#N)CC2)C[C@@H]1c1nnc2cnc3[nH]ccc3n12` [compound 54, 1-cyano-N-((1S,3R,4S)-3-ethyl-4-(6H-pyrrolo[2,3-e][1,2,4]triazolo[4,3-a]pyrazin-1-yl)cyclopentyl)cyclopropanecarboxamide]: the half-inhibitory concentration (IC50) fell in the range of 1 to 10 µM. In the case of `CC[C@@H]1C[C@H](NC(=O)Cc2cc(C)no2)C[C@@H]1c1nnc2cnc3[nH]ccc3n12` [compound 55, N-((1S,3R,4S)-3-ethyl-4-(6H-pyrrolo[2,3-e][1,2,4]triazolo[4,3-a]pyrazin-1-yl)cyclopentyl)-2-(3-methylisoxazol-5-yl)acetamide] it was 1 to 10 µM; in that of `CC[C@@H]1C[C@H](NC(=O)c2ccoc2)C[C@@H]1c1nnc2cnc3[nH]ccc3n12` [compound 56, N-((1S,3R,4S)-3-ethyl-4-(6H-pyrrolo[2,3-e][1,2,4]triazolo[4,3-a]pyrazin-1-yl)cyclopentyl)furan-3-carboxamide], 1 to 10 µM. In the case of `CC[C@@H]1C[C@H](NC(=O)c2cc3ccccc3o2)C[C@@H]1c1nnc2cnc3[nH]ccc3n12` [compound 57, N-((1S,3R,4S)-3-ethyl-4-(6H-pyrrolo[2,3-e][1,2,4]triazolo[4,3-a]pyrazin-1-yl)cyclopentyl)benzofuran-2-carboxamide] it was 1 to 10 µM; in that of `CC[C@@H]1C[C@H](NC(=O)c2coc3c2C(=O)CCC3)C[C@@H]1c1nnc2cnc3[nH]ccc3n12` [compound 58, N-((1S,3R,4S)-3-ethyl-4-(6H-pyrrolo[2,3-e][1,2,4]triazolo[4,3-a]pyrazin-1-yl)cyclopentyl)-4-oxo-4,5,6,7-tetrahydrobenzofuran-3-carboxamide], 1 to 10 µM. As for `CC[C@@H]1C[C@H](NC(=O)c2cc(C3CC3)on2)C[C@@H]1c1nnc2cnc3[nH]ccc3n12` [compound 59, 5-cyclopropyl-N-((1S,3R,4S)-3-ethyl-4-(6H-pyrrolo[2,3-e][1,2,4]triazolo[4,3-a]pyrazin-1-yl)cyclopentyl)isoxazole-3-carboxamide], the figure is 1 to 10 µM.

In the case of `CC[C@@H]1C[C@H](NC(=O)/C=C/c2ccco2)C[C@@H]1c1nnc2cnc3[nH]ccc3n12` [compound 60, (E)-N-((1S,3R,4S)-3-ethyl-4-(6H-pyrrolo[2,3-e][1,2,4]triazolo[4,3-a]pyrazin-1-yl)cyclopentyl)-3-(furan-2-yl)acrylamide], the IC50 was in the range of 1 to 10 µM. In the case of `CC[C@@H]1C[C@H](NC(=O)c2cc(C)no2)C[C@@H]1c1nnc2cnc3[nH]ccc3n12` [compound 62, N-((1S,3R,4S)-3-ethyl-4-(6H-pyrrolo[2,3-e][1,2,4]triazolo[4,3-a]pyrazin-1-yl)cyclopentyl)-3-methylisoxazole-5-carboxamide] it was 1 to 10 µM; in that of `CC[C@@H]1C[C@H](NC(=O)c2cocn2)C[C@@H]1c1nnc2cnc3[nH]ccc3n12` [compound 63, N-((1S,3R,4S)-3-ethyl-4-(6H-pyrrolo[2,3-e][1,2,4]triazolo[4,3-a]pyrazin-1-yl)cyclopentyl)oxazole-4-carboxamide], 1 to 10 µM. Regarding `CC[C@@H]1C[C@H](NC(=O)c2ccc(CSC)o2)C[C@@H]1c1nnc2cnc3[nH]ccc3n12` [compound 64, N-((1S,3R,4S)-3-ethyl-4-(6H-pyrrolo[2,3-e][1,2,4]triazolo[4,3-a]pyrazin-1-yl)cyclopentyl)-5-(methylthiomethyl)furan-2-carboxamide], the IC50 was 1 to 10 µM. Compound `CC[C@@H]1C[C@H](NC(=O)c2cc(OC)no2)C[C@@H]1c1nnc2cnc3[nH]ccc3n12` [compound 65, N-((1S,3R,4S)-3-ethyl-4-(6H-pyrrolo[2,3-e][1,2,4]triazolo[4,3-a]pyrazin-1-yl)cyclopentyl)-3-methoxyisoxazole-5-carboxamide] had an IC50 of 1 to 10 µM.

For the compound `CC[C@@H]1C[C@H](NC(=O)c2cnoc2C2CC2)C[C@@H]1c1nnc2cnc3[nH]ccc3n12` [compound 66, 5-cyclopropyl-N-((1S,3R,4S)-3-ethyl-4-(6H-pyrrolo[2,3-e][1,2,4]triazolo[4,3-a]pyrazin-1-yl)cyclopentyl)isoxazole-4-carboxamide], the IC50 lay in the range of 1 to 10 µM. In the case of `CC[C@@H]1C[C@H](NC(=O)CCC2CCC2)C[C@@H]1c1nnc2cnc3[nH]ccc3n12` [compound 67, 3-cyclobutyl-N-((1S,3R,4S)-3-ethyl-4-(6H-pyrrolo[2,3-e][1,2,4]triazolo[4,3-a]pyrazin-1-yl)cyclopentyl)propanamide] it was 1 to 10 µM; in that of `CC[C@@H]1C[C@H](NC(=O)c2noc3ccccc23)C[C@@H]1c1nnc2cnc3[nH]ccc3n12` [compound 68, N-((1S,3R,4S)-3-ethyl-4-(6H-pyrrolo[2,3-e][1,2,4]triazolo[4,3-a]pyrazin-1-yl)cyclopentyl)benzo[d]isoxazole-3-carboxamide], under 1 µM.
